{"source": "patent US8143025B2", "about": "“Antibodies against vascular endothelial growth factor receptor-1” (ImClone LLC, priority 2004, dated 2012)", "tested_on": "MDA-MB-435 xenograft", "experiment": "MDA-MB-435 breast tumor xenograft", "type": "in vivo, mouse", "conditions": "MDA-MB-435 model, differences did not reach statistical significance", "method": "Athymic nude mice (Charles River Laboratories, Wilmington, Mass.) were injected subcutaneously in the left flank area with 2×10^6 of DU4475 cells or 5×10^6 of MDA-MB-231 and MDA-MB-435 cells mixed in Matrigel (Collaborative Research Biochemicals. Bedford, Mass.). In the DU4475 and MDA-MB-231 models, tumors were allowed to reach approximately 200 mm^3 in size and then mice were randomized into groups of 12-16 animals per group. Animals received i.p. administration of the anti-VEGFR-I antibody clones 6F9, 15F11, or 18F1 at a dose of 0.5 mg (MDA-MB-231) or 1 mg (DU4475) three times each week. In the MDA-MB-435 model, the tumor cells were implanted subcutaneously into mammary fat pad area in the mouse. After tumors grew to reach approximately 200 mm^3 in size, mice were randomized into groups of 15 animals per group and intraperitoneally administered with 0.5 mg per dose of 18F1 antibody three times each week. Mice in control groups received an equal volume of saline solution. Treatment of animals was continued for the duration of the experiment. Tumors were measured twice each week with calipers. Tumor volumes were calculated using the formula [π/6 (w1×w2×w2)], where “w1” represents the largest tumor diameter and “w2” represents the smallest tumor diameter. […] Tumor growth was evaluated approximately twice weekly, with tumor volume calculated as π/6* (Length*Width^2), where Length=longest diameter and Width=diameter perpendicular to Length. Tumor dimensions were measured with calipers. T/C % was calculated as 100*(Final Treatment Tumor Volume/Initial Treatment Tumor Volume)/(Final Control Tumor Volume/Initial Control Tumor Volume). […] The effect of treatment on tumor growth was analyzed using repeated measures analysis of variance (RM ANOVA), p<0.05 was considered significant. […] AU treatments were administered i.p. The effect of treatments on tumor growth were analyzed using repeated measures analysis of variance (RM ANOVA), p<0.05 was considered significant.", "data": [{"smiles": "O=P1(N(CCCl)CCCl)NCCCO1", "note": "(stereo not shown) [cyclophosphamide, reference compound]", "values": [{"measurement": "T/C %", "value": 65, "unit": "%"}]}]}
